Source: the supplement of paper PMC10307832

How the values were obtained:
Experiment in all cases: relative viability (nuclei count vs DMSO), 5 days (fraction); higher = more cells survive
VX-702 + Olaparib = compound: NC(=O)c1ccc(N(C(N)=O)c2c(F)cccc2F)nc1-c1ccc(F)cc1F [VX-702] + O=C(c1cc(Cc2n[nH]c(=O)c3ccccc23)ccc1F)N1CCN(C(=O)C2CC2)CC1 [Olaparib] (partner 8 µM)
Summary of the method: (§1)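 Lung cancer cell lines, seeded in 1536-well plates, were treated the following day by pin tool with a single drug or with five library-drug doses (not always all listed) in √10 steps on top of a fixed anchor-drug dose. Cells were fixed and nuclei stained in one step after 5 days, and nuclei were counted. Relative viability is the nuclei count for treated wells divided by that for vehicle wells, reported as medians of duplicate plates.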

Dabrafenib + Trametinib = compound: CC(C)(C)c1nc(-c2cccc(NS(=O)(=O)c3c(F)cccc3F)c2F)c(-c2ccnc(N)n2)s1 [Dabrafenib] + CC(=O)Nc1cccc(-n2c(=O)n(C3CC3)c(=O)c3c(Nc4ccc(I)cc4F)n(C)c(=O)c(C)c32)c1 [Trametinib] (partner 0.02 µM)
Summary of the method: as §1

VX-702 + Pictilisib = compound: NC(=O)c1ccc(N(C(N)=O)c2c(F)cccc2F)nc1-c1ccc(F)cc1F [VX-702] + CS(=O)(=O)N1CCN(Cc2cc3nc(-c4cccc5[nH]ncc45)nc(N4CCOCC4)c3s2)CC1 [Pictilisib] (partner 1 µM)
Summary of the method: as §1

Dabrafenib + Luminespib = compound: CC(C)(C)c1nc(-c2cccc(NS(=O)(=O)c3c(F)cccc3F)c2F)c(-c2ccnc(N)n2)s1 [Dabrafenib] + CCNC(=O)c1noc(-c2cc(C(C)C)c(O)cc2O)c1-c1ccc(CN2CCOCC2)cc1 [Luminespib] (partner 0.01 µM)
Summary of the method: as §1

Cell Line	relative viability (VX-702 + Olaparib; first compound 0.02 µM)	relative viability (VX-702 + Olaparib; first compound 0.2 µM)	relative viability (VX-702 + Olaparib; first compound 0.6325 µM)	relative viability (VX-702 + Olaparib; first compound 2 µM)	relative viability (Dabrafenib + Trametinib; first compound 0.003 µM)	relative viability (Dabrafenib + Trametinib; first compound 0.009487 µM)	relative viability (Dabrafenib + Trametinib; first compound 0.03 µM)	relative viability (Dabrafenib + Trametinib; first compound 0.09487 µM)	relative viability (Dabrafenib + Trametinib; first compound 0.3 µM)	relative viability (VX-702 + Pictilisib; first compound 0.02 µM)	relative viability (VX-702 + Pictilisib; first compound 0.2 µM)	relative viability (VX-702 + Pictilisib; first compound 0.6325 µM)	relative viability (VX-702 + Pictilisib; first compound 2 µM)	relative viability (Dabrafenib + Luminespib; first compound 0.003 µM)	relative viability (Dabrafenib + Luminespib; first compound 0.009487 µM)	relative viability (Dabrafenib + Luminespib; first compound 0.03 µM)	relative viability (Dabrafenib + Luminespib; first compound 0.09487 µM)	relative viability (Dabrafenib + Luminespib; first compound 0.3 µM)
201T	0.832	0.882	0.894	0.898	0.723	0.744	0.654	0.685	0.751	0.698	0.634	0.676	0.668	1.08	1.1	0.967	0.983	1.06
A549	0.444	0.243	0.374	0.114	–	–	–	–	–	0.48	0.517	0.519	0.705	–	–	–	–	–
A-427	0.779	0.751	0.725	0.943	0.759	0.737	0.745	0.65	0.785	0.786	0.706	0.701	0.566	–	1	0.772	0.744	1.14
ABC-1	0.443	0.894	1.03	0.746	–	–	–	–	–	0.829	–	0.649	0.655	0.67	0.637	–	0.449	0.875
BEN	0.781	0.89	0.991	1.06	–	1.07	–	0.842	1.11	0.558	0.526	0.491	0.608	–	0.549	–	0.344	0.332
CAL-12T	0.798	0.69	0.711	0.697	0.327	0.319	0.382	0.334	0.445	0.482	0.185	0.536	0.534	0.362	0.517	0.408	0.445	0.32
COR-L23	0.351	0.339	0.379	0.386	0.528	0.432	0.626	0.512	0.656	0.908	0.855	0.772	1.06	0.648	0.76	0.544	0.603	0.771
COR-L 105	0.633	0.658	0.768	0.859	0.418	0.478	0.46	0.479	0.521	0.449	0.386	0.409	0.366	0.852	0.936	0.916	0.949	0.977
Calu-6	–	0.597	0.65	0.64	–	–	–	–	–	0.973	1.05	0.996	1.11	–	–	–	–	–
ChaGo-K-1	0.458	0.414	0.433	0.352	0.884	0.929	0.933	0.875	0.905	0.73	0.3	0.591	1.12	0.57	0.647	0.517	0.529	0.47
EBC-1	0.82	0.702	0.653	0.745	–	–	–	–	–	0.381	0.331	0.307	0.311	–	–	–	–	–
EKVX	0.726	0.869	0.906	0.974	–	0.367	0.304	0.434	0.462	0.408	0.351	0.35	0.358	0.996	1.03	0.852	0.819	0.897
EMC-BAC-2	0.526	0.483	0.482	0.441	–	0.827	1	1.03	1.2	0.547	0.555	0.508	0.432	1.16	1.23	1	1.13	1.28
EPLC-272H	0.856	1.07	0.799	1.07	–	0.262	0.312	0.349	0.329	0.321	0.303	0.33	0.353	0.156	0.233	0.467	0.272	0.546
H3255	0.578	0.53	0.558	0.594	0.641	0.584	0.668	0.639	0.789	0.553	0.48	0.462	0.479	0.699	0.961	0.908	0.96	0.871
HARA	0.87	–	0.779	0.964	–	0.805	0.832	0.721	1	0.361	0.412	0.325	0.332	0.83	0.818	–	0.621	0.726
HCC-15	0.752	0.712	0.692	0.719	0.354	0.437	0.378	0.374	0.506	0.731	0.644	0.643	0.749	0.379	0.634	0.285	0.0381	0.52
HCC-44	1.01	0.982	0.989	0.963	0.926	0.993	1.18	0.876	1.11	0.726	0.552	0.479	0.522	1.12	1.01	1.17	0.98	0.861
HCC-78	0.743	0.671	0.83	0.867	–	0.688	0.668	0.761	0.89	0.224	0.17	0.176	0.237	–	–	–	–	–
HCC-366	0.409	0.361	0.353	0.269	0.324	0.348	0.225	0.374	0.396	0.132	0.148	0.154	0.113	–	–	–	–	–
HCC-827	0.648	0.603	0.59	0.562	0.511	0.53	0.522	–	0.616	0.856	0.701	0.99	0.355	0.387	0.986	0.308	–	0.518
